What was measured:
[1] = tested on: S6K pre-mRNA splicing in HCT-116 cells; assay: S6K pre-mRNA splicing alteration (quantitative RT-PCR), HCT-116; assay type: cell-based, human; settings: ratio of S6K exons 6–8 to exons 6–7 is 0.1
Excerpt: (§1) To examine whether inhibition of a particular CLK and/or SRPK contributed to the alternative splicing of S6K pre-mRNA, we used an additional series of compounds with the same scaffold as Cpd-1, Cpd-2, and Cpd-3, but different selectivity. First, we examined the correlation between the enzymatic activity and the level of splicing alterations of S6K pre-mRNA for the individual compounds. We used the exon 7-skipped type of S6K variant to calibrate Rc0.1 values, i.e., the concentrations that induced 10% of the copy number of an alternative isoform compared with that of the canonical isoform. The inhibition of CLK1 and CLK2 activities was correlated with the splicing alteration activities (Rc0.1) (R^2 = 0.3353 and 0.4255, respectively). In contrast, there was no correlation between the activities of SRPKs and the Rc0.1 values (R^2 < 0.0468) (Fig. 3A). Next, we compared the levels of splicing alteration and growth inhibition of the compounds. […] Similar correlations between Rc0.1 and GI50 values were also obtained in seven different cancer cell lines after treatment with Cpd-2 or Cpd-3 (Table 2).
(§2) Total RNA was extracted using an RNeasy Miniprep Kit (Qiagen, Valencia, CA) in accordance with the manufacturer’s instructions. Reverse transcription was performed using a TaqMan Reverse Transcription Reagents Kit (Applied Biosystems, Carlsbad, CA). The PCR conditions were as follows: one cycle of 5 min at 95°C; 35 cycles of 30 s at 94°C, 30 s at 60°C, and 30 s at 72°C; and one cycle of 10 min at 72°C. The PCR products were separated in 2% agarose gels. Real-time PCR was performed using a TaqMan MGB probe (Applied Biosystems), and the amount of FAM fluorescence was measured as a function of the PCR cycle number (CT) using an ABI 7900 Real-time PCR System (Applied Biosystems). The expression level of each mRNA was normalized by that of GAPDH mRNA.

[2] = tested on: SW620 cells; assay: Cell viability assay, SW620; assay type: cell-based; settings: Homo sapiens, SW-620; SW620 colorectal cancer
[3] = tested on: COLO205 cells; assay: Cell viability assay, COLO205; assay type: cell-based; settings: Homo sapiens, COLO 205; COLO205 colorectal cancer
[4] = tested on: S6K pre-mRNA splicing in MDA-MB-468 cells; assay: S6K pre-mRNA splicing alteration (quantitative RT-PCR), MDA-MB-468; assay type: cell-based, human; settings: for Rc0.1: MDA-MB-468, concentration at which ratio of copy number of S6K exons 6–8 to S6K exons 6–7 is 0.1; for concentration at which expression level of the alternatively spliced S6K mRNAs was highest: MDA-MB-468, 6 h, S6K exons 6–8 (exon 7 skipped)
Excerpt: as §1, §2

[5] = molecular target: Aurora kinase A (Homo sapiens, UniProt O14965); assay: Kinase panel assay (Z'-LYTE, SelectScreen), Aurora kinase A; assay type: biochemical; settings: 1 μM compound, 100 μM ATP; among kinases inhibited by more than 50%
Protocol: (§3) Kinase panel assays were performed using the FRET-based Z’- LYTE enzymatic kinase assay system (Life Technologies, Carlsbad, CA), which was carried out using the SelectScreen Kinase Profiling Service (Life Technologies). The standard reaction contained 2 μM peptide substrate, 100 μM ATP, 50 mM HEPES (pH 7.5), 0.01% Brij-35, 10 mM MgCl2, 1 mM EGTA, and each kinase. Cpd-1, Cpd-2, and Cpd-3 at two point concentration (100 and 1000 nM) with duplicate data points (n = 2) were assayed following the detailed procedures outlined in the SelectScreen. The full assay protocol and conditions can be obtained at www.lifetechnologies.com. Percent inhibition represents a ratio of phosphorylated product formed in the presence of the compound compared with phosphorylated product formed in reactions containing 1% DMSO. Inhibition data indicates the mean value of kinase inhibition from duplicate data.

[6] = molecular target: T1, CLK2 (Homo sapiens, UniProt P49760); assay: Kinase panel assay (Z'-LYTE, SelectScreen), CLK2 among 28 kinases; assay type: biochemical; settings: 100 and 1000 nM
T1 construct: purchased Life Technologies
Protocol: as §3

[7] = tested on: A549 cells; assay: Cell viability assay, A549; assay type: cell-based; settings: Homo sapiens; A549 non-small cell lung cancer
[8] = tested on: phospho-SR proteins in MDA-MB-468 cells; assay: Immunoblot of phospho-SR proteins; assay type: cell-based, human; settings: MDA-MB-468, 3 h, anti-pan-phospho-SR antibody
Protocol: Cells were lysed in radioimmunoprecipitation assay buffer containing 50 mM Tris-HCl (pH 7.6), 150 mM NaCl, 1% Triton X-100, and protease inhibitor cocktail tablets (Roche). After removal of the insoluble matter by centrifugation at 15,000 rpm for 15 min, the protein concentrations of the supernatants were determined using a BCA Protein Assay Kit (Pierce Biotechnology, Rockford, IL). The lysates were directly combined with one-quarter volume of 5× sample buffer [25 mmol/L Tris-HCl pH 6.8, 10% glycerol, 0.8% SDS, and 0.004% bromophenol blue] and boiled at 100°C for 5 min. The samples were subjected to 5–20% gradient SDS-polyacrylamide gel electrophoresis, and the separated proteins were electrophoretically transferred to polyvinylidene difluoride membranes using an I-blot System (Invitrogen). The membranes were incubated with primary antibodies and visualized using enhanced chemiluminescence reagents (GE Healthcare). The primary antibodies were as follows: anti-phospho-SR (1H4), anti-SR (Invitrogen), anti-EGFR, anti-EIF3D, anti-GAPDH (Santa Cruz Biotechnology, Santa Cruz, CA), anti-S6K and anti-PARP (Cell Signaling Technology, Danvers, MA).

T1 sequence (P49760 whole entry): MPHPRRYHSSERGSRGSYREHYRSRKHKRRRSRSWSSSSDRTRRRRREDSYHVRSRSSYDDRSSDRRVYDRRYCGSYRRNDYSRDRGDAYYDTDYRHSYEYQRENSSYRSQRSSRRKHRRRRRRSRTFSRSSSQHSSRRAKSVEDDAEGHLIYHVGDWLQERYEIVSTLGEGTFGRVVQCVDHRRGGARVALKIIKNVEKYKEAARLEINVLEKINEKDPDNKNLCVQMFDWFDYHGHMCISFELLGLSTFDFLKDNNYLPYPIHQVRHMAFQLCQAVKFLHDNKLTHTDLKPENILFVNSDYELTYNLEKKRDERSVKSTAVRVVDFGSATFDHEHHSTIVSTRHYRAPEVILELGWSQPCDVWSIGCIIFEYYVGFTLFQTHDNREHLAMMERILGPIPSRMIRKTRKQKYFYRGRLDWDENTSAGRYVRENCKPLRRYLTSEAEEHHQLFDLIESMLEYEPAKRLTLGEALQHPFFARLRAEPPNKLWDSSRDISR
Sequence of Aurora kinase A (O14965 whole entry): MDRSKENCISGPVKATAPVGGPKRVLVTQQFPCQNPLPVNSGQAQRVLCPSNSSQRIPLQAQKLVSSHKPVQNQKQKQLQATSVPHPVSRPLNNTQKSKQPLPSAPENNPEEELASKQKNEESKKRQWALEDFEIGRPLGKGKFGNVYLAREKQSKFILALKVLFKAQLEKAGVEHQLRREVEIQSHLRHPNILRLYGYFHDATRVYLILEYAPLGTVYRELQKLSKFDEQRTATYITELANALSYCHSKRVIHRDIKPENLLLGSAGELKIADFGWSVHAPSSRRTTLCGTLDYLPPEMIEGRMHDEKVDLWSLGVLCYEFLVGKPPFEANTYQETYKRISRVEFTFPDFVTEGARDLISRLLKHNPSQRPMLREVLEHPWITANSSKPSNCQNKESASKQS

Row | Compound | Rc0.1 [1] [µM] | GI50 [2] [nM] | GI50 [3] [nM] | Rc0.1 [4] [µM] | inhibition of Aurora kinase A in kinase panel [5] | inhibitory activity against CLK2 among the 28 critical oncology-related kinases [6] | GI50 [7] [nM] | Phospho-SRSF1 (SF2) level [8] | phosphorylation levels of SRSF4 (SRp75) [8] | concentration at which expression level of the alternatively spliced S6K mRNAs was highest [4] [µM]
1 | CC(C)(CCc1nnn[nH]1)c1ccc(C(=O)Nc2cn3cc(C(F)(F)F)ccc3n2)cc1 [Cpd-1, 4-(2-methyl-4-(1H-tetrazol-5-yl)butan-2-yl)-N-(6-(trifluoromethyl)imidazo[1,2-a]pyridin-2-yl)benzamide] | >10 | 41800 | 27300 | 8.6 | moderately inhibited | strongest inhibitory activity against CLK2 | 102000 |  |  | 
2 | CC(C)(C)c1ccc(C(=O)Nc2cn3cc(-c4cn[nH]c4)ccc3n2)cn1 [Cpd-2, 6-tert-butyl-N-(6-(1H-pyrazol-4-yl)imidazo[1,2-a]pyridin-2-yl)nicotinamide] | 1.2 | 2000 | 1700 | 0.3 |  | strongest inhibitory activity against CLK2 | 1900 | decreased | at lower concentrations than Cpd-1 | 1.1 to 3.3
3 | CC(C)(CO)c1ccc(C(=O)Nc2cn3cc(-c4cn[nH]c4)ccc3n2)cc1 [Cpd-3, 4-(1-hydroxy-2-methylpropan-2-yl)-N-(6-(1H-pyrazol-4-yl)imidazo[1,2-a]pyridin-2-yl)benzamide] | 1.9 | 2900 | 2100 | 0.5 | moderately inhibited | strongest inhibitory activity against CLK2 | 2600 | decreased | at lower concentrations than Cpd-1 | 1.1 to 3.3

Source: publication PMC4291223, “Inhibitors of CLK Protein Kinases Suppress Cell Growth and Induce Apoptosis by Modulating Pre-mRNA Splicing” (PLoS ONE, 2015)
